Reference: ChEMBL document CHEMBL1130924, “Potent inhibition of protein-tyrosine phosphatase-1B using the phosphotyrosyl mimetic fluoro-O-malonyl tyrosine (FOMT)” (Bioorg Med Chem Lett, 1998)
Peptide text beside a SMILES is read from it. * marks the point of attachment. X1 = O=C(O)C(C(=O)O)*

Columns and labels:
[1] = molecular target: T1, Tyrosine-protein phosphatase non-receptor type 1 (Homo sapiens, UniProt P18031); experiment: Compound concentration that cause 50% inhibition of protein-tyrosine phosphatase 1B (PTP1B)
T1 sequence (P18031 whole entry): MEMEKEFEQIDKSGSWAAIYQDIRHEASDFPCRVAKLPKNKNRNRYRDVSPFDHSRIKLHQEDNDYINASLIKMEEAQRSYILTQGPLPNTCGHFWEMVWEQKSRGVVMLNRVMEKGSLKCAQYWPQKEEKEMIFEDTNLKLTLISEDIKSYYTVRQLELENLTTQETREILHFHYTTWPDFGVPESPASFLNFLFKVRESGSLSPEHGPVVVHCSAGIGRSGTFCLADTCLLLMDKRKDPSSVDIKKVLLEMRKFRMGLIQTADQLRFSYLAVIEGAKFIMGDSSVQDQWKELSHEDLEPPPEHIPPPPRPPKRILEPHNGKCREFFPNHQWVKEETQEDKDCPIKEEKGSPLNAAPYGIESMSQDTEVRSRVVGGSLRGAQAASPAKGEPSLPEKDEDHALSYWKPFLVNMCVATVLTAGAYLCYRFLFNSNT

[2] = molecular target: T1, Tyrosine-protein phosphatase non-receptor type 1; experiment: Compound was evaluated for the binding affinity against protein-tyrosine phosphatase 1B (PTP1B)

| IC50 [1] [µM] | Ki [2] [µM] | Compound |
| --- | --- | --- |
| 1 | – | N[C@@H](Cc1ccc(OC(F)(C(=O)O)C(=O)O)cc1)C(=O)O [FLUOROMALONYL TYROSINE] |
| 10 | – | N[C@@H](Cc1ccc(OC(C(=O)O)C(=O)O)cc1)C(=O)O |
| – | 0.17 | CC(C)C[C@@H]1NC(=O)[C@H](Cc2ccc(OC(F)(C(=O)O)C(=O)O)cc2)NC(=O)[C@@H](CCC(=O)O)NC(=O)[C@H](CC(=O)O)NC(=O)[C@@H](C)NC(=O)[C@H](CC(=O)O)NC(=O)CSCC(C(N)=O)NC1=O (some centres undefined) |
| – | 13 | CC(=O)N[C@@H](CC(=O)O)C(=O)N[C@@H](C)C(=O)N[C@@H](CC(=O)O)C(=O)N[C@@H](CCC(=O)O)C(=O)N[C@@H](Cc1ccc(OC(C(=O)O)C(=O)O)cc1)C(=O)N[C@@H](CC(C)C)C(N)=O (Ac-DADEY(X1)L-NH2) |
